The values below come from patent publication US7390925B2, “Oxime-containing acyl guanidines as beta-secretase inhibitors” (Bristol-Myers Squibb Company, priority 2006, dated 2008).

The target in the assay is T1, BACE1 enzyme (Homo sapiens, UniProt P56817).
T1 construct: derived from HEK293 cells (Simmons, N. L. (1990)); endogenous in cells; washed 48,000 x g pellet of cell homogenate
Description: Radioligand displacement assay with a radiolabeled BACE inhibitor on HEK293-9B.A1 cell homogenate. As to conditions: displacement of 1 nM radioligand, HEK293-9B.A1 homogenate, pH 5.0, 1.5 hr at 25° C.; read-out: Activity Rating (activity based on IC50 values). Format: binding. From the text: There are a number of methods by which inhibitors of the BACE enzyme can be identified experimentally. The enzyme can be obtained from membrane samples from natural tissues or cultured cells or can be expressed recombinantly in a host cell by well known methods of molecular biology. The whole enzyme or a portion thereof can be expressed, for example, in bacterial, insect or mammalian cells to obtain a catalytically active enzyme species. The enzymatic activity and/or ligand binding capability of the enzyme can be assessed within these membrane samples, or the enzyme can be purified to varying extents. As an illustrative example, the nucleic acid sequence encoding the pro and catalytic domains of human BACE can be appended on the 5′ end with an untranslated and signal sequence from the gene for acetylcholinesterase, and on the 3′ end with a sequence encoding a poly-histidine tag. This cDNA can then be expressed in Drosophila melanogaster S2 cells in which the signal and pro sequences of the transcribed/translated protein are removed by cellular proteases and the catalytic domain, appended by a C-terminal poly-histidine tag, is secreted out into the cellular medium. The enzyme can then be purified from the culture medium by nickel affinity chromatography by methods well known to those trained in the art [Mallender, W. et al., (2001) “Characterization of recombinant, soluble beta-secretase from an insect cell expression system.” Mol. Pharmacol. 59: 619-626]. Similar strategies for expressing and purifying various forms of BACE in bacterial, mammalian and other cell types would be known to one skilled in the art. A preferred method for determining the potency of a test compound in binding to the BACE enzyme is by monitoring the displacement of a suitable radioligand.
Radioligand displacement assays with a radiolabeled BACE inhibitor (WO 2004 013098, compound 3, where the methoxy group is substituted for C(^3H)3) were carried out using standard methods (Keen, M. (1999) in Receptor Binding Techniques (Walker, J. M. ed) p. 106 Humana Press, Totowa, N. J.). The HEK293-9B.A1 cell line, which overexpresses the BACE1 enzyme, was derived from HEK293 cells (Simmons, N. L. (1990) A cultured human renal epithelioid cell line responsive to vasoactive intestinal peptide. Exp. Physiol. 75:309-19.) by RAGE™ (Harrington, J. J. et al. (2001) Creation of genome-wide protein expression libraries using random activation of gene expression. Nat. Biotechnol. 19:440-5.; U.S. Pat. Nos. 6,410,266 and 6,361,972). T225 flask cultures of HEK293-9B.A1 were grown to 80% confluency in DMEM supplemented with 2 mM L-glutamine, 10 μg/ml penicillin, 10 μg/ml streptomycin, 3 μg/ml puromycin, 100 nM methotrexate, and 10% fetal bovine serum (Invitrogen, Carlsbad, Calif.), harvested, and resuspended at 2×10^8 cells per 10 ml of lysis buffer consisting of 50 mM HEPES pH 7.0 containing a protease inhibitor cocktail of AEBSF 104 μM, aprotinin 80 nM, leupeptin 2 μM, bestatin 4 μM, pepstatin A 1.5 μM, and E-64 1.4 μM (0.1% of protease inhibitor cocktail P8340, Sigma-Aldrich, St. Louis, Mo.) at 4° C. The resuspended cells were homogenized using a Polytron (Brinkman, Westbury, N.Y.) at setting 6 for 10 sec., then centrifuged at 48,000×g for 10 min. The resulting pellet was washed by repeating the resuspension, homogenization and centrifugation steps. The final pellet was resuspended in buffer at 4° C. to yield a total protein concentration of 5 mg/ml, then aliquots were frozen in liquid nitrogen for further storage at −70° C. Immediately before carrying out a binding assay, an aliquot of cell homogenate was thawed and diluted to a concentration of 100 μg/ml in assay buffer consisting of 50 mM HEPES pH 5.0 and 0.1% CHAPSO. […]

T1 sequence (P56817 46-501): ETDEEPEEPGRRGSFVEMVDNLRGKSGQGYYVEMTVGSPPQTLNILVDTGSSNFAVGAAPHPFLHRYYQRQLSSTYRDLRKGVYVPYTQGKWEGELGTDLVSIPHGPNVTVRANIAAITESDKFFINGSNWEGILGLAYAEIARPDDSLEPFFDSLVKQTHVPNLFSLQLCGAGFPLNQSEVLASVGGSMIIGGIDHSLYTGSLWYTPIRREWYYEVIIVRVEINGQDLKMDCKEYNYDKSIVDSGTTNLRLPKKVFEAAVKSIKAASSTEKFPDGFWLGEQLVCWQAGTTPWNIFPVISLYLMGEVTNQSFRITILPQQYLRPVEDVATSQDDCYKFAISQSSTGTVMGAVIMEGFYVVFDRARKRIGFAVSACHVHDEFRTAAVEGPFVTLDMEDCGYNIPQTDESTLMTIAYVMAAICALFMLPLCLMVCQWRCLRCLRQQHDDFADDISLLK

For `CON=C(CC(=O)/N=C(\N)Cc1cc(Cl)c(NC(C)=O)c(Cl)c1)c1ccc(OC)cc1` [Example 1, N-(2-(4-Acetamido-3,5-dichlorophenyl)-1-aminoethylidene)-3-(methoxyimino)-3-(4-methoxyphenyl)propanamide], the IC50 is < 100 nM.

Consider `COc1ccc(C(CC(=O)N=C(N)NCc2cc(Cl)c(NC(C)=O)c(Cl)c2)=NOCC(C)C)cc1` [Example 18, N-((4-acetamido-3,5-dichlorobenzylamino)(amino)-methylene)-3-(isobutoxyimino)-3-(4-methoxyphenyl)propanamide], for which the IC50 was 100 to 1000 nM.

As for `COc1ccc(C(CC(=O)/N=C(\N)NCc2cc(Cl)c(N)c(Cl)c2)=NOCC(C)C)cc1` [Example 19, N-((4-amino-3,5-dichlorobenzylamino)(amino)methylene)-3-(isobutoxyimino)-3-(4-methoxyphenyl)propanamide], the IC50 is > 1000 nM.

Consider `CON=C(CC(=O)/N=C(\N)NCc1cc(Cl)c(N)c(Cl)c1)c1c[nH]c2ccccc12` [Example 20, N-((4-amino-3,5-dichlorobenzylamino)(amino)methylene)-3-(1H-indol-3-yl)-3-(methoxyimino)propanamide], for which the IC50 was 100 to 1000 nM.

Take `CON=C(CC(=O)/N=C(\N)NCc1cc(Cl)c(NC(C)=O)c(Cl)c1)c1c[nH]c2ccccc12` [Example 21, N-((4-acetamido-3,5-dichlorobenzylamino)(amino)methylene)-3-(1H-indol-3-yl)-3-(methoxyimino)propanamide]: the IC50 was < 100 nM.

Turning to `CON=C(CC(=O)/N=C(\N)NCc1cc(C)c(C(=O)CN(C)C)c(Cl)c1)c1c[nH]c2ccccc12` [Example 22, N-((3-chloro-4-(2-(dimethylamino)acetyl)-5-methylbenzylamino)(amino)-methylene)-3-(1H-indol-3-yl)-3-(methoxyimino)propanamide], the IC50 was in the range of 100 to 1000 nM.

As for “N-(1-Amino-2-(3,5-dichlorophenyl)ethylidene)-3-(methoxyimino)-3-(4-methoxyphenyl)propanamide [Example 3]”, the IC50 is > 1000 nM.

As for “N-(1-Amino-2-(3-chloro-4-(2-(dimethylamino)acetamido)-5-methylphenyl)-ethylidene)-3-(methoxyimino)-3-(4-methoxyphenyl)propanamide [Example 4]”, the IC50 was 100 to 1000 nM.

Consider “N-(1-Amino-2-(4-amino-3,5-dichlorophenyl)ethylidene)-3-(ethoxyimino)-3-(4-methoxyphenyl)propanamide [Example 6]”, for which the IC50 is 100 to 1000 nM.

Consider “N-(1-Amino-2-(4-amino-3,5-dichlorophenyl)ethylidene)-3-(methoxyimino)-3-(2-methoxyphenyl)propanamide [Example 13]”, for which the IC50 was > 1000 nM.

Consider “N-(1-Amino-2-(4-amino-3,5-dichlorophenyl)ethylidene)-3-(methoxyimino)-3-(4-methoxyphenyl)propanamide [Example 2]”, for which the IC50 was in the range of 100 to 1000 nM.

Consider “N-(1-Amino-2-(4-amino-3,5-dichlorophenyl)ethylidene)-3-(methoxyimino)-3-(4-nitrophenyl)propanamide [Example 17]”, for which the IC50 lay within 100 to 1000 nM.

For the molecule “N-(1-Amino-2-(4-amino-3,5-dichlorophenyl)ethylidene)-3-(methoxyimino)-3-phenylpropanamide [Example 9]”, the IC50 fell in the range of 100 to 1000 nM.

Regarding “N-(2-(4-Acetamido-3,5-dichlorophenyl)-1-aminoethylidene)-3-(4-fluorophenyl)-3-(methoxyimino)propanamide [Example 15]”, the IC50 was < 100 nM.

For the molecule “N-(2-(4-Acetamido-3,5-dichlorophenyl)-1-aminoethylidene)-3-(4-nitrophenyl)-3-(methoxyimino)propanamide [Example 16]”, the IC50 was < 100 nM.

As for “N-(2-(4-Acetamido-3,5-dichlorophenyl)-1-aminoethylidene)-3-(ethoxyimino)-3-(4-methoxyphenyl)propanamide [Example 5]”, the IC50 is < 100 nM.

Take “N-(2-(4-Acetamido-3,5-dichlorophenyl)-1-aminoethylidene)-3-(methoxyimino)-3-(2-methoxyphenyl)propanamide [Example 12]”: the IC50 lay in the range of 100 to 1000 nM.

For the molecule “N-(2-(4-Acetamido-3,5-dichlorophenyl)-1-aminoethylidene)-3-(methoxyimino)-3-(3-methoxyphenyl)propanamide [Example 11]”, the IC50 lay in the range of 100 to 1000 nM.
